Assay results as given in ChEMBL document CHEMBL1134436, “Significance of hydrogen bonding at the S(1)' subsite of calpain I” (Bioorg Med Chem Lett, 2001).

Biological target: T1, Calpain-1 catalytic subunit (Sus scrofa, UniProt P35750)
T1 sequence (P35750 whole entry): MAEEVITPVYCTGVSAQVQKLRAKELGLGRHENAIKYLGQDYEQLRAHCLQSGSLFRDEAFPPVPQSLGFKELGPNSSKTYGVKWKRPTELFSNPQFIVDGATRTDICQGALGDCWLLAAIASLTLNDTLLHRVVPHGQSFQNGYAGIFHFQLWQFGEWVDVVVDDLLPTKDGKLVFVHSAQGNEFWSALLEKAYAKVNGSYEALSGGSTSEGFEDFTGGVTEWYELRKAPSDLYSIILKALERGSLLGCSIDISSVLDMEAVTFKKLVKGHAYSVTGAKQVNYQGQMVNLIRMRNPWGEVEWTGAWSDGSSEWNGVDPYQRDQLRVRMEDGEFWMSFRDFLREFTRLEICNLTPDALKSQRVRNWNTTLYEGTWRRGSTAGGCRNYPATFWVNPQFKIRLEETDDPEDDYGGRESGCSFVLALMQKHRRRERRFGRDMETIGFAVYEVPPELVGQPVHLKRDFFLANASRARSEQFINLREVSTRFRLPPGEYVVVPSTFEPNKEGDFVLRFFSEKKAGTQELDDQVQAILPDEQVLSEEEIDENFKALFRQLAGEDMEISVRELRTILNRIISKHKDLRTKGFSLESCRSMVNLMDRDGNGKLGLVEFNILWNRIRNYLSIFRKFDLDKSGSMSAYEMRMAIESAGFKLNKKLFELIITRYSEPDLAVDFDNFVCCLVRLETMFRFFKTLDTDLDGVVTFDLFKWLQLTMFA
Assay: Binding affinity was evaluated against porcine erythrocyte Calpain 1 at the S1 subsite of the enzyme

| Ki | Structure (SMILES) |
| --- | --- |
| 0.75 µM | CCON(C)C(=O)C(=O)[C@H](Cc1ccccc1)NC(=O)[C@H](CC(C)C)NC(=O)OCc1ccccc1 |
| 0.673 µM | CC(C)C[C@H](NC(=O)OCc1ccccc1)C(=O)N[C@@H](Cc1ccccc1)C(=O)C(=O)N(C)OCc1ccccc1 |
| 0.072 µM | CC(C)C[C@H](NC(=O)OCc1ccccc1)C(=O)N[C@@H](Cc1ccccc1)C(=O)C(=O)NCCc1ccccc1 |

The remaining lines, values behind:

| Structure (SMILES) | Ki |
| --- | --- |
| CC(C)C[C@H](NC(=O)OCc1ccccc1)C(=O)N[C@@H](Cc1ccccc1)C(=O)C(=O)NOCc1ccccc1 | 0.045 µM |
| CCONC(=O)C(=O)[C@H](Cc1ccccc1)NC(=O)[C@H](CC(C)C)NC(=O)OCc1ccccc1 | 0.062 µM |
| CCCNC(=O)C(=O)[C@H](Cc1ccccc1)NC(=O)[C@H](CC(C)C)NC(=O)OCc1ccccc1 | 0.107 µM |
| CCN(OCc1ccccc1)C(=O)C(=O)[C@H](Cc1ccccc1)NC(=O)[C@H](CC(C)C)NC(=O)OCc1ccccc1 | 28 µM |
| CCN(CC)C(=O)C(=O)[C@H](Cc1ccccc1)NC(=O)[C@H](CC(C)C)NC(=O)OCc1ccccc1 | 76 µM |
| CCNC(=O)C(=O)[C@H](Cc1ccccc1)NC(=O)[C@H](CC(C)C)NC(=O)OCc1ccccc1 | 0.2 µM |
